Source: PubChem BioAssay AID1259407 (Chemical Carcinogenesis Research Information System (CCRIS), 2018)
The source made the active and inactive calls. The rule behind the calls is not given here.

Tested on: CCRIS mutagenicity, Ames/micronucleus/aberration tests
Assay: CCRIS mutagenicity studies
[1] = Test System: AMES SALMONELLA TYPHIMURIUM, Strain/Indicator: TA98, Metabolic Activation: HAMSTER, LIVER, S-9, AROCLOR 1254 (10%), Method: PREINCUBATION
[2] = Test System: AMES SALMONELLA TYPHIMURIUM, Strain/Indicator: TA98, Metabolic Activation: NONE, Method: PREINCUBATION
[3] = Test System: AMES SALMONELLA TYPHIMURIUM, Strain/Indicator: TA98, Metabolic Activation: RAT, LIVER, S-9, AROCLOR 1254 (10%), Method: PREINCUBATION
[4] = Test System: AMES SALMONELLA TYPHIMURIUM, Strain/Indicator: TA100, Metabolic Activation: HAMSTER, LIVER, S-9, AROCLOR 1254 (10%), Method: PREINCUBATION
[5] = Test System: AMES SALMONELLA TYPHIMURIUM, Strain/Indicator: TA100, Metabolic Activation: NONE, Method: PREINCUBATION
[6] = Test System: AMES SALMONELLA TYPHIMURIUM, Strain/Indicator: TA100, Metabolic Activation: RAT, LIVER, S-9, AROCLOR 1254 (10%), Method: PREINCUBATION
[7] = Test System: AMES SALMONELLA TYPHIMURIUM, Strain/Indicator: TA1535, Metabolic Activation: HAMSTER, LIVER, S-9, AROCLOR 1254 (10%), Method: PREINCUBATION
[8] = Test System: AMES SALMONELLA TYPHIMURIUM, Strain/Indicator: TA1535, Metabolic Activation: NONE, Method: PREINCUBATION
[9] = Test System: AMES SALMONELLA TYPHIMURIUM, Strain/Indicator: TA1535, Metabolic Activation: RAT, LIVER, S-9, AROCLOR 1254 (10%), Method: PREINCUBATION
[10] = Test System: AMES SALMONELLA TYPHIMURIUM, Strain/Indicator: TA1537, Metabolic Activation: NONE, Method: PREINCUBATION
[11] = Test System: AMES SALMONELLA TYPHIMURIUM, Strain/Indicator: TA100, Metabolic Activation: RAT, LIVER, S-9, AROCLOR 1254, Method: STANDARD PLATE
[12] = Test System: AMES SALMONELLA TYPHIMURIUM, Strain/Indicator: TA98, Metabolic Activation: NONE, Method: STANDARD PLATE
[13] = Test System: AMES SALMONELLA TYPHIMURIUM, Strain/Indicator: TA100, Metabolic Activation: NONE, Method: STANDARD PLATE

## CC(C)CCCCCCCOC(=O)c1ccccc1C(=O)OCCCCCCCC(C)C
[1]
  mutagenic call: inactive; negative
[2]
  mutagenic call: inactive; negative
[3]
  mutagenic call: inactive; negative
[4]
  mutagenic call: inactive; negative
[5]
  mutagenic call: inactive; negative
[6]
  mutagenic call: inactive; negative
[7]
  mutagenic call: inactive; negative
[8]
  mutagenic call: inactive; negative
[9]
  mutagenic call: inactive; negative
Test System: AMES SALMONELLA TYPHIMURIUM, Strain/Indicator: TA1537, Metabolic Activation: HAMSTER, LIVER, S-9, AROCLOR 1254 (10%), Method: PREINCUBATION
  mutagenic call: inactive; negative
[10]
  mutagenic call: inactive; negative
Test System: AMES SALMONELLA TYPHIMURIUM, Strain/Indicator: TA1537, Metabolic Activation: RAT, LIVER, S-9, AROCLOR 1254 (10%), Method: PREINCUBATION
  mutagenic call: inactive; negative
Test System: MOUSE LYMPHOMA, Strain/Indicator: L5178Y (TK+/TK-), Metabolic Activation: NONE, Method: SUSPENSION/PLATE
  mutagenic call: inactive; negative
Test System: MOUSE LYMPHOMA, Strain/Indicator: L5178Y (TK+/TK-), Metabolic Activation: RAT LIVER S-9, Method: SUSPENSION/PLATE
  mutagenic call: inactive; negative

## Cn1c2ccc3ccccc3c2c2c3ccccc3ccc21
[11]
  mutagenic call: active; positive
Test System: AMES SALMONELLA TYPHIMURIUM, Strain/Indicator: TM677, Metabolic Activation: RAT, LIVER, S-9, 3-METHYLCHOLANTHRENE (1%), Method: PREINCUBATION
  mutagenic call: inactive; negative
Test System: AMES SALMONELLA TYPHIMURIUM, Strain/Indicator: TM677, Metabolic Activation: RAT, LIVER, S-9, 3-METHYLCHOLANTHRENE (10%), Method: PREINCUBATION
  mutagenic call: inactive; negative
Test System: AMES SALMONELLA TYPHIMURIUM, Strain/Indicator: TM677, Metabolic Activation: RAT, LIVER, S-9, AROCLOR 1254 (10%), Method: PREINCUBATION
  mutagenic call: inactive; negative

## OCCBr
Test System: AMES SALMONELLA TYPHIMURIUM, Strain/Indicator: TA97, Metabolic Activation: HAMSTER, LIVER, S-9, AROCLOR 1254 (10%), Method: PREINCUBATION
  mutagenic call: inactive; negative
Test System: AMES SALMONELLA TYPHIMURIUM, Strain/Indicator: TA97, Metabolic Activation: NONE, Method: PREINCUBATION
  mutagenic call: inactive; negative
Test System: AMES SALMONELLA TYPHIMURIUM, Strain/Indicator: TA97, Metabolic Activation: RAT, LIVER, S-9, AROCLOR 1254 (10%), Method: PREINCUBATION
  mutagenic call: inactive; negative
[1]
  mutagenic call: inactive; negative
[2]
  mutagenic call: inactive; negative
[12]
  mutagenic call: inactive; negative
[3]
  mutagenic call: inactive; negative
Test System: AMES SALMONELLA TYPHIMURIUM, Strain/Indicator: TA98, Metabolic Activation: RAT, LIVER, S-9, AROCLOR 1254, Method: STANDARD PLATE
  mutagenic call: inactive; negative
[4]
  mutagenic call: active; positive
[5]
  mutagenic call: active; positive
[13]
  mutagenic call: active; positive
[6]
  mutagenic call: active; positive
[11]
  mutagenic call: active; positive
[7]
  mutagenic call: active; positive
[8]
  mutagenic call: active; positive
[9]
  mutagenic call: active; positive

## [Cl][Mn][Cl]
[2]
  mutagenic call: inactive; negative
Test System: AMES SALMONELLA TYPHIMURIUM, Strain/Indicator: TA98, Metabolic Activation: RAT LIVER S-9, PHENOBARBITAL AND BETA-NAPHTHOFLAVONE, Method: PREINCUBATION
  mutagenic call: inactive; negative
[5]
  mutagenic call: inactive; negative
Test System: AMES SALMONELLA TYPHIMURIUM, Strain/Indicator: TA100, Metabolic Activation: RAT LIVER S-9, PHENOBARBITAL AND BETA-NAPHTHOFLAVONE, Method: PREINCUBATION
  mutagenic call: inactive; negative
Test System: AMES SALMONELLA TYPHIMURIUM, Strain/Indicator: TA102, Metabolic Activation: NONE, Method: STANDARD PLATE
  mutagenic call: active; positive
[8]
  mutagenic call: inactive; negative
Test System: AMES SALMONELLA TYPHIMURIUM, Strain/Indicator: TA1535, Metabolic Activation: RAT LIVER S-9, PHENOBARBITAL AND BETA-NAPHTHOFLAVONE, Method: PREINCUBATION
  mutagenic call: inactive; negative
[10]
  mutagenic call: inactive; negative
Test System: AMES SALMONELLA TYPHIMURIUM, Strain/Indicator: TA1537, Metabolic Activation: RAT LIVER S-9, PHENOBARBITAL AND BETA-NAPHTHOFLAVONE, Method: PREINCUBATION
  mutagenic call: inactive; negative
Test System: AMES SALMONELLA TYPHIMURIUM, Strain/Indicator: TA1538, Metabolic Activation: NONE, Method: PREINCUBATION
  mutagenic call: inactive; negative
Test System: AMES SALMONELLA TYPHIMURIUM, Strain/Indicator: TA1538, Metabolic Activation: RAT LIVER S-9, PHENOBARBITAL AND BETA-NAPHTHOFLAVONE, Method: PREINCUBATION
  mutagenic call: inactive; negative
Test System: E. COLI, Strain/Indicator: WP2 UVRA, Metabolic Activation: NONE, Method: SPOT TEST
  mutagenic call: inactive; negative
Test System: E.COLI, Strain/Indicator: WP2UVRA, Metabolic Activation: NONE, Method: PREINCUBATION
  mutagenic call: inactive; negative
Test System: E.COLI, Strain/Indicator: WP2UVRA, Metabolic Activation: RAT LIVER S-9, PHENOBARBITAL AND BETA-NAPHTHOFLAVONE, Method: PREINCUBATION
  mutagenic call: inactive; negative

## Nc1cccc2c1Cc1ccccc1-2
Test System: AMES SALMONELLA TYPHIMURIUM, Strain/Indicator: TA98, Metabolic Activation: RAT, LIVER, S-9, AROCLOR 1254 (2 OR 4%), Method: STANDARD PLATE
  mutagenic call: active; positive
Test System: AMES SALMONELLA TYPHIMURIUM, Strain/Indicator: TA100, Metabolic Activation: RAT, LIVER, S-9, AROCLOR 1254 (4%), Method: STANDARD PLATE
  mutagenic call: active; positive
Test System: AMES SALMONELLA TYPHIMURIUM, Strain/Indicator: TA1535, Metabolic Activation: RAT, LIVER, S-9, AROCLOR 1254 (4%), Method: STANDARD PLATE
  mutagenic call: inactive; negative
Test System: AMES SALMONELLA TYPHIMURIUM, Strain/Indicator: TA1537, Metabolic Activation: RAT, LIVER, S-9, AROCLOR 1254 (4%), Method: STANDARD PLATE
  mutagenic call: active; positive

## CCc1ccc2c(c1[N+](=O)[O-])C(=O)c1ccccc1C2=O
[12]
  mutagenic call: inactive; negative
[13]
  mutagenic call: inactive; negative
[11]
  mutagenic call: active; positive
Test System: AMES SALMONELLA TYPHIMURIUM, Strain/Indicator: TA1535, Metabolic Activation: NONE, Method: STANDARD PLATE
  mutagenic call: inactive; negative
Test System: AMES SALMONELLA TYPHIMURIUM, Strain/Indicator: TA1535, Metabolic Activation: RAT, LIVER, S-9, AROCLOR 1254, Method: STANDARD PLATE
  mutagenic call: inactive; negative
Test System: AMES SALMONELLA TYPHIMURIUM, Strain/Indicator: TA1537, Metabolic Activation: NONE, Method: STANDARD PLATE
  mutagenic call: inactive; negative
Test System: AMES SALMONELLA TYPHIMURIUM, Strain/Indicator: TA1538, Metabolic Activation: NONE, Method: STANDARD PLATE
  mutagenic call: inactive; negative

## CCN(CC)c1cc(NC(C)=O)c(N=Nc2c(Cl)cc([N+](=O)[O-])cc2[N+](=O)[O-])cc1OC
End Point: IN VITRO CHROMOSOMAL ABERRATIONS, Test System: CHL CELLS, Metabolic Activation: RAT, LIVER, S-9, SODIUM PHENOBARBITAL AND 5,6-BENZOFLAVONE
  mutagenic call: inactive; negative

## COc1ccc(-c2nc(-c3ccccc3)c(-c3ccccc3)[nH]2)cc1
[12]
  mutagenic call: active; positive
Test System: AMES SALMONELLA TYPHIMURIUM, Strain/Indicator: TA98, Metabolic Activation: RAT LIVER S-9, 3-METHYLCHOLANTHRENE, SODIUM PHENOBARBITAL, Method: STANDARD PLATE
  mutagenic call: inactive; negative
[13]
  mutagenic call: active; positive
Test System: AMES SALMONELLA TYPHIMURIUM, Strain/Indicator: TA100, Metabolic Activation: RAT LIVER S-9, 3-METHYLCHOLANTHRENE, SODIUM PHENOBARBITAL, Method: STANDARD PLATE
  mutagenic call: inactive; negative
